Tests used:
[1] = tested on: 5′-AA-3′ (DNA, single strand, 5'-phosphate (discussed as a 5' phosphate group in the modelled structure)) AA; experiment: SERS adsorption isotherm, Hill-Langmuir fit; conditions: no added salt stated; immobilised compound, apparent; dinucleotide adsorption on spermine-capped gold-silver nanostars; 20 °C; spermine 6.7×10^-5 M; Hill n 1.5
[2] = tested on: 5′-AA-3′ (DNA, single strand, 5'-phosphate (discussed as a 5' phosphate group in the modelled structure)) AA; experiment: Raman spectroscopy of dried mixture (532 nm); conditions: no added salt stated; water, dried residue; spermine and dinucleotide at 2:1 molar excess, incubated overnight

- K d [1]: (6.2 ± 0.7) 10^–7 M
- binding [2]: yes
Structure (SMILES): NCCCNCCCCNCCCN
